The source made the active and inactive calls. The calls are words filed in the database; no cut-off is given here.
What was measured:
DU-145 = test: Cytotoxicity against human DU145 cells after 24 hrs by FMCA; type: functional, cell-based; settings: DU-145, 24 h
MCF7 = test: Cytotoxicity against human MCF7 cells after 24 hrs by FMCA; type: functional, cell-based; settings: MCF7, 24 h
[1] = Cytotoxicity against mouse C3H10T1/2 cells after 24 hrs by FMCA; type: cell-based; settings: C3H 10T1/2, 24 h
[2] = Inhibition of hedgehog/GLI1-mediated transcriptional activity in human HaCaT cells after 12 hrs by luciferase assay; type: cell-based
[3] = biological target: T1, Zinc finger protein GLI1 (Homo sapiens) (UniProt P08151); test: Inhibition of GST-GLI1 (unknown origin) interaction with DNA assessed as reduction of protein-DNA complex level at 100 uM after 20 mins by electrophoretic mobility shift assay
T1 sequence (whole entry): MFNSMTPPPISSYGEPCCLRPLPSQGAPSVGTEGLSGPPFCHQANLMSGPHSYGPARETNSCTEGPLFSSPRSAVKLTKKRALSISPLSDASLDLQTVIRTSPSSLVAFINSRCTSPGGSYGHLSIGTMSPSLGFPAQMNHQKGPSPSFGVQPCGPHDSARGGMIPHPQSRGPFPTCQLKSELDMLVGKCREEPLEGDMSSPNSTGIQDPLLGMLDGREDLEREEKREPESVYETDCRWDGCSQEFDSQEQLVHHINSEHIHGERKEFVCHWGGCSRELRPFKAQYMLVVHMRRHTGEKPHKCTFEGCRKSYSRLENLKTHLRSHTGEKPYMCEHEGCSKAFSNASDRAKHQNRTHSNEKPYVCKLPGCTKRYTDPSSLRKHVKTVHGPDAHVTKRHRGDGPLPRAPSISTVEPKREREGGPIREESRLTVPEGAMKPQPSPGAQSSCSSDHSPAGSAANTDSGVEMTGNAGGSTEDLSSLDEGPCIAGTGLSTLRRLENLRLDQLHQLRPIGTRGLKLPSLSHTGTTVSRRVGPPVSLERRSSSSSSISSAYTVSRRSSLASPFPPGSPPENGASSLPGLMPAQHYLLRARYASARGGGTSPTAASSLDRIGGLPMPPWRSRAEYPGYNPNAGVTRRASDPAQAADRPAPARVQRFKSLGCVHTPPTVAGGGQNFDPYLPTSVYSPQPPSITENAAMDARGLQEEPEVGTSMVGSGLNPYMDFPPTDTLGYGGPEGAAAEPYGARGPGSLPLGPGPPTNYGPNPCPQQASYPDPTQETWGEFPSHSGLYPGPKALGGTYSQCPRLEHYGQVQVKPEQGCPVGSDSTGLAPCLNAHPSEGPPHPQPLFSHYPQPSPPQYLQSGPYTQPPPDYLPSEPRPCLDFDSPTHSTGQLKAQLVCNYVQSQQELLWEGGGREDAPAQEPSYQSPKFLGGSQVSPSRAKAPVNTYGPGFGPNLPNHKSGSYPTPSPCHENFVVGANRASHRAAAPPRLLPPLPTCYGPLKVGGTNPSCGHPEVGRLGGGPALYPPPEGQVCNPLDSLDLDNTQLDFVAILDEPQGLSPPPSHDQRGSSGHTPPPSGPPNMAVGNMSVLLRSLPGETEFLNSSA

[4] = Cytotoxicity against human PANC1 cells after 24 hrs by FMCA; type: functional, cell-based; settings: PANC-1, 24 h
PANC-1 [5] = test: Inhibition of PTCH expression in human PANC1 cells at 5 uM after 12 hrs by Western blotting; type: functional, cell-based
PANC-1 [6] = test: Inhibition of BCL-2 expression in human PANC1 cells at 5 uM after 12 hrs by Western blotting; type: functional, cell-based
HaCaT [7] = test: Inhibition of PTCH expression in human HaCaT cells expressing GLI1 at 1.5 uM after 12 hrs by Western blotting; type: functional, cell-based
HaCaT [8] = test: Inhibition of BCL-2 expression in human HaCaT cells expressing GLI1 at 1.5 uM after 12 hrs by Western blotting; type: functional, cell-based
PANC-1 [9] = test: Inhibition of BCL-2 expression in human PANC1 cells at 1 uM after 12 hrs by Western blotting; type: functional, cell-based
PANC-1 [10] = test: Inhibition of PTCH expression in human PANC1 cells at 1 uM after 12 hrs by Western blotting; type: functional, cell-based

Structure (SMILES) | IC50 (DU-145) | IC50 (MCF7) | IC50 [1] | IC50 [2] | inhibition [3] | IC50 [4] | inhibition (PANC-1 [5]) | inhibition (PANC-1 [6]) | inhibition (HaCaT [7]) | inhibition (HaCaT [8]) | inhibition (PANC-1 [9]) | inhibition (PANC-1 [10])
CC1=C(CO)C(=O)O[C@@H]([C@@H](C)[C@H]2CC[C@H]3[C@@H]4C[C@H]5O[C@]56[C@@H](O)CCC(=O)[C@]6(C)[C@H]4CC[C@]23C)C1 | > 25 µM | > 25 µM | > 25 µM | 14.8 µM | Active | > 25 µM |  |  |  |  |  | 
CO[C@H]1CC(=O)[C@]2(C)[C@H]3CC[C@]4(C)[C@@H]([C@H](C)[C@H]5CC(C)=C(CO)C(=O)O5)CC[C@H]4[C@@H]3C[C@H]3O[C@]32[C@H]1O | > 25 µM | > 25 µM | > 25 µM | > 25 µM |  | > 25 µM |  |  |  |  |  | 
CC1=C(C)C(=O)O[C@@H]([C@@H](C)[C@H]2CC[C@H]3[C@@H]4C[C@H]5O[C@]56[C@@H](O)C=CC(=O)[C@]6(C)[C@H]4CC[C@]23C)C1 | 1.8 µM | 2.8 µM | 4.1 µM | 0.6 µM |  | 1.1 µM | Active | Active | Active | Active |  | 
CC1=C(CO)C(=O)O[C@@H]([C@@H](C)[C@H]2CC[C@H]3[C@@H]4C[C@H]5O[C@]56[C@@H](O)[C@@H](OS(=O)(=O)O)CC(=O)[C@]6(C)[C@H]4CC[C@]23C)C1 | 21.7 µM | 17.9 µM | 21 µM | 2.2 µM |  | 14.8 µM |  |  |  |  |  | 
CC1=C(CO)C(=O)O[C@@H]([C@@H](C)[C@H]2CC[C@H]3[C@@H]4C[C@H]5O[C@]56[C@@H](O)C=CC(=O)[C@]6(C)[C@H]4CC[C@]23C)C1 [WITHAFERIN A] | 2.5 µM | 6.3 µM | 4.9 µM | 0.5 µM | Active | 1.6 µM |  |  | Active | Active | Active | Active
CC1=C(CO)C(=O)O[C@@H]([C@@H](C)[C@H]2CC[C@H]3[C@@H]4CC=C5[C@@H](O)C=CC(=O)[C@]5(C)[C@H]4CC[C@]23C)C1 | 10.6 µM | 22.6 µM | > 25 µM | 1.8 µM |  | 11.9 µM |  |  |  |  |  | 

Source: ChEMBL document CHEMBL3603818, “Hedgehog inhibitors from Withania somnifera” (Bioorg Med Chem Lett, 2015)
